Key:
peritoneal macrophages [1] = test: In vitro training and re-stimulation of peritoneal macrophages (Example 2), TNF-α ELISA; assay type: cell-based, mice; settings: Mdivi-1 10 μM
Method: Isolation and culture of peritoneal macrophages. Mice were euthanized with CO2 inhalation and injected i.p. with 5 ml of sterile cold, complete DMEM medium (Sigma Aldrich) followed by gentle massage of the peritoneum. The peritoneal fluid was then collected, centrifuged at 1600 rpm for 5 min. The cell pellet was washed, counted, and plated at appropriate numbers in complete DMEM. The cells were incubated for 2-4 hours at 37° C. and 5% CO2 to allow peritoneal macrophages attached to the plates. The floating cells were aspirated and plates were gently washed with sterile pre-warmed medium and then added with fresh complete DMEM. For comparison studies between different mouse strains, peritoneal cells were stained with viability dye and anti-F4/80 antibodies (Biolegend) and F4/80^+ macrophages were sorted by FACS Aria III (BD Bioscience).
In vitro training and re-stimulation of peritoneal macrophages. Peritoneal macrophages were treated with 25 μg/ml of WGP or polystyrene beads (3 μm, Sigma-Aldrich) and incubated for 24 h at 37°° C. with 5% CO2. Macrophages were then washed with pre-warmed complete DMEM at least twice to remove excess WGP or polystyrene beads, added with fresh complete DMEM and incubated 6 days. On day 7, macrophages were re-stimulated with different stimuli such as LPS (10 ng/ml) (Sigma), tumor cells, tumor cell culture supernatants (40%) or rMIF (100 ng/ml) (kindly provided by Dr. Robert Mitchell) for 24 h. The culture supernatants were harvested and assayed for TNF-α by ELISA. For cell culture supernatants, tumor cell lines including LLC, B16F10, and EL4, and control cell line MLE-12 were used.
These cell lines were cultured (1 million/4 ml complete DMEM) in a 6-well plate and incubated for 72 h. The supernatants were harvested and stored at −80° C. in aliquots.
ELISA for TNF-α and MIF. TNF-α in the culture supernatants was measured using TNF-α ELISA kit (Biolegend) and MIF levels in the culture supernatants were quantified using mouse MIF ELISAkit (R&D Systems) per the manufacturer's instruction.
In vitro training with S1P. Peritoneal macrophages were stimulated with 200 nM or 300 nM of S1P for 24 h at 37° C. and 5% CO2. The macrophages were then washed and allowed for resting. On day 7, the macrophages were stimulated with LPS (10 ng/ml) or LLC culture supernatant (40%) for 24 h and the supernatants were collected for the quantification of TNF-α using ELISA. For another set of in vitro-training experiment, macrophages were trained with S1P in the presence of Mdivi-1 (10 μM) during S1P training and throughout the resting period. Cells were restimulated with LPS and the supernatants were collected to determine TNF-α levels by ELISA.
[…] The inhibitors were further added to the macrophage cultures and incubated at 37° C. and 5% CO2 for 6 more days. On day 7, the macrophages were washed once with pre-warmed complete DMEM and added LPS (10 ng/ml) or LLC culture supernatant (40%) for re-stimulation.

peritoneal macrophages [2] = test: Mitochondrial fission, TMRM confocal microscopy; assay type: cell-based, mice; settings: Mdivi-1 10 μM
Method: Confocal microscopy. Poly-L-Lysine-treated glass coverslips were added to 12 well plates to which appropriate numbers of macrophages were added along with 2 ml of sterile complete DMEM. Cells were trained with WGP alone or in combination with Mdivi-1 (10 μM) for 7 days as previously described. After 7 days of incubation, the media was removed, and the cells were washed with sterile PBS followed by addition of TMRM dye (Tetramethylrhodamine, methyl ester, Sigma) for 20 min. After incubation, the cells were washed with PBS and fixed with 1 ml of 4% formalin at room temperature for 20-30 min. The cells were washed thrice with PBS and the glass slides were removed carefully with the help of forceps and mounted on the slides using mounting reagents and left overnight to dry at room temperature or stored at 4° C. protecting from the light. The slides were then read using a Nikon Confocal microscope. Mitochondrial fragment lengths were measured by counting at least 100 mitochondria per sample using an Image-J software.

LLC-GFP cells = test: In vivo Mdivi-1 treatment during WGP training, phenotyping and LLC-GFP challenge; parameters: species or system C57Bl/6 mice
Method: In vivo Mdivi-1 treatment. 6 weeks old C57B1/6 female mice were i.p. injected with Mdivi-1 (50 mg/kg) or DMSO along with suitable carriers (5% Tween-80 and 40% PEG300) starting day 0 for 6 days. Mdivi-1/DMSO treated mice were also treated with PBS or WGP at day 0. Mice were euthanized at day 7 to harvest the BM and lungs for phenotyping using flow cytometry. In tumor challenging experiment, Mdivi-1/DMSO-treated PBS vs WGP trained mice were i.v. injected with 0.4×10^6 LLC-GFP cells on day 9. Mice were euthanized on day 27. Lungs were then analyzed for tumor burden using flow cytometry.
CyTOF mass cytometry staining, data acquisition, and analysis. Lung single cell suspensions were prepared as described earlier and ex vivo stimulated with PMA/Ionomycin for 4 h at 37° C., 5% CO2. The cells were then harvested, washed with PBS and transferred to sterile-capped culture tubes. Cells were then stained for viability using 5 μM cisplatin (Fluidigm) in serum-free RPMI 1640 for 5 min at RT and washed with complete RPMI 1640. Cells were stained with the surface markers antibodies for 30 min at RT and washed twice with Maxpar cell staining buffer (Fluidigm) followed by fixation with 1 ml of 1X Maxpar Fix I buffer for 30 min at RT. Upon fixation, cells were washed twice with 2 ml of 1X Maxpar Perm-S buffer for 5 min at 800 g, stained for the cytoplasmic/secreted antibodies and incubated for 30 min at RT. Following incubation, cells were washed twice with 1 ml of 1X Maxpar Perm-S buffer for 5 min at 800 g. The cells were then suspended in 1 ml of 1X Maxpar nuclear antigen staining buffer (Fluidigm) and incubated for 30 min at RT, washed twice with Maxpar nuclear antigen staining permeability buffer (Fluidigm) at 800 g for 5 min each. Cells were stained for nuclear antigens and incubated at RT for 30 min, washed twice with Maxpar nuclear antigen staining permeability buffer and fixed with 1.6% formaldehyde for 10 min at RT. The fixed cells were then centrifuged to remove the formaldehyde at 800 g for 5 min and incubated with 125 nM of intercalator iridium (Fluidigm) overnight at 4° C. After overnight incubation, the cells were washed twice with cell staining buffer, pelleted and kept on ice until acquisition using CyTOF. Prior to acquisition, cells were suspended in a 1:9 solution of Cell acquisition solution: EQ 4 element calibration beads (Fluidigm) and acquired using a Helios CyTOF system. Upon acquisition of the samples, the .FCS files were normalized to .fcs files using the CyTOF software for analysis. The data acquired by CyTOF were then analyzed using FlowJo10 and the FlowSOM softwares.

SMILES: COc1cc(-n2c(=S)[nH]c3ccccc3c2=O)c(Cl)cc1Cl [Mdivi-1]
- effect on S1P-induced trained immunity (TNF-α) (peritoneal macrophages [1]; LPS): abrogated S1P-induced trained immunity
- effect on WGP-mediated trained responses (TNF-α) (peritoneal macrophages [1]; LPS or LLC supernatants): abrogated WGP-mediated trained responses
- effect on WGP-induced mitochondrial fragmentation (peritoneal macrophages [2]): abrogated WGP-induced mitochondrial fragmentation
- effect on WGP-mediated accumulation of myeloid cells in the lungs (LLC-GFP cells; Mdivi-1 50 mg/kg i.p. daily): did not affect WGP-mediated accumulation of myeloid cells in the lungs
- effect on WGP-mediated myelopoiesis in the BM (LLC-GFP cells; Mdivi-1 50 mg/kg i.p. daily, day 7): does not inhibit WGP-mediated myelopoiesis in the BM
- lung IM trained phenotype (TNF-α) in WGP trained mice (LLC-GFP cells; Mdivi-1 treated): completely inhibited
- tumor burdens in the lungs (LLC-GFP cells; WGP trained + Mdivi-1 vs untrained control): no difference in the tumor burdens between WGP trained mice treated with Mdivi-1 and untrained control mice
- F4/80+CD11b+ lung MAMs and PD-L1+/CD206+ lung macrophages, CyTOF (LLC-GFP cells; mouse, in vivo): this effect was abolished when mice were treated with Mdivi-1

— patent US20250025490A1, “INDUCTION OF TRAINED IMMUNITY FOR THE TREATMENT OF HYPERPROLIFERATIVE DISORDERS” (priority 2021, published 2025)
